From BindingDB's records for doi:10.7270/Q27H1H0J (Srmlsc, 2008)

Target: T1, M1 family aminopeptidase (Plasmodium falciparum (isolate FcB1 / Columbia), UniProt O96935)
T1 sequence (O96935 whole entry): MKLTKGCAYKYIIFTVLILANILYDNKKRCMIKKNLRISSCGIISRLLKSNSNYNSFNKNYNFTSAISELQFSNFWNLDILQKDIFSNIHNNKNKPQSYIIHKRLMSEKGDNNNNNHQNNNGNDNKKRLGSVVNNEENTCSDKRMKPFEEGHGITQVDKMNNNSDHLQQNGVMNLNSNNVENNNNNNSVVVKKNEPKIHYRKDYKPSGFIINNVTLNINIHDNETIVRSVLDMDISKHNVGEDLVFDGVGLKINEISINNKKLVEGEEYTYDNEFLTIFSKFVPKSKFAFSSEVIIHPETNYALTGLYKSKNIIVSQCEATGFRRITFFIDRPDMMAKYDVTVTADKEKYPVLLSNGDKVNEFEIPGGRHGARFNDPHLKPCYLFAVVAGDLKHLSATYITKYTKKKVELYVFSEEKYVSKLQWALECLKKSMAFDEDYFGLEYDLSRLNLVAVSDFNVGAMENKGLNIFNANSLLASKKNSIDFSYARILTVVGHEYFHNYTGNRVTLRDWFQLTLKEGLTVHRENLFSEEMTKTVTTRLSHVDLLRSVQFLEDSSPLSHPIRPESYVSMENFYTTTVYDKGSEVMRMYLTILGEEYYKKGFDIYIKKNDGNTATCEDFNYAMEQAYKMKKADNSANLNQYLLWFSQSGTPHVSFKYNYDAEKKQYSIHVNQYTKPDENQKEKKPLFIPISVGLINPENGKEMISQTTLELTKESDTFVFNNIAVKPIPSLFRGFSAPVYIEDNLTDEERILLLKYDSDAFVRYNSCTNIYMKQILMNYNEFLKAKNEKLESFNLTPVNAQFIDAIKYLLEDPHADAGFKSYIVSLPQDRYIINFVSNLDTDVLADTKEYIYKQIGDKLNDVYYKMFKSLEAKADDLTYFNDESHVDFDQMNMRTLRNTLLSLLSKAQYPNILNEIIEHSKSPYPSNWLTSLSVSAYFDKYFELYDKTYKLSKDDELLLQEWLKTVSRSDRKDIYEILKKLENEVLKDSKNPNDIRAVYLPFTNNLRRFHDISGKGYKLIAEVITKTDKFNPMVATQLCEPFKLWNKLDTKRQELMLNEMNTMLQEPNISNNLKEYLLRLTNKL
Assay: malaria alanyl aminopeptidase activity blockers – biochemical, fluorogenic H-Leu-NHMec substrate, 1536-well (AID 1445)

Compared with `CN1C(=O)/C(=C/c2ccc(-c3ccccc3[N+](=O)[O-])o2)S/C1=N/c1ccc(Cl)c(C(=O)O)c1` [2-Chloro-5-[3-methyl-5-[1-[5-(2-nitro-phenyl)-furan-2-yl]-meth-(Z)-ylidene]-4-oxo-thiazolidin-(2Z)-ylideneamino]-benzoic acid], `C=c1[nH]n(-c2ccc(Cl)c(C(=O)O)c2)c(=O)c1=Cc1ccc(-c2ccc(C(=O)O)cc2)o1` [SMR000312901] is 6.7-fold lower in IC50: 16.1 µM for the first, 2.41 µM for the second. The second is the more potent here.

Compared with `Cc1cc(C(=O)NN=CC2C=C(Cl)C=C([N+](=O)[O-])C2=O)[nH]n1` (stereo not drawn) [SMR000414694], `Nc1nnc(CC(=O)N/N=C/C2C=C([N+](=O)[O-])C=C(Br)C2=O)s1` (stereo not drawn) [2-(5-azanyl-1,3,4-thiadiazol-2-yl)-N'-[(E)-(5-bromanyl-3-nitro-6-oxidanylidene-cyclohexa-2,4-dien-1-ylidene)methyl]ethanehydrazide] is 1.7-fold lower in IC50: 52.3 µM for the first, 30 µM for the second. The second is the more potent here.

First: CCc1ccc2oc(-c3ccc(OC)cc3)c/c(=N\c3cccc(C(=O)O)c3)c2c1 [(3-carboxyphenyl)-[6-ethyl-2-(4-methoxyphenyl)-1-benzopyran-4-ylidene]ammonium;tetrafluoroborate]
Second: COc1ccc(-c2c/c(=N\CCC(=O)O)c3cc(C)ccc3o2)cc1
The IC50 of the first is 3.3-fold lower: 11.9 µM for the first, 38.9 µM for the second. The first is the more potent here.

`CC(=O)Nc1ccc(S(=O)(=O)Oc2cccc(CN=Nc3nc(O)c(CC(=O)O)s3)c2)cc1` [(2-{[3-({[4-(acetylamino)phenyl]sulfonyl}oxy)benzylidene]hydrazono}-4-oxo-1,3-thiazolidin-5-yl)acetic acid] and `CCOc1cc(CN=Nc2nc(O)c(CC(=O)O)s2)ccc1OS(=O)(=O)c1ccc(C)cc1` [{2-[(3-ethoxy-4-{[(4-methylphenyl)sulfonyl]oxy}benzylidene)hydrazono]-4-oxo-1,3-thiazolidin-5-yl}acetic acid] are within 1.5-fold of each other in IC50: 52.8 µM for the first, 47.8 µM for the second.

First: COc1ccc(CN=Nc2nc(O)c(CC(=O)O)s2)cc1OCc1ccc(Cl)cc1 [2-[2-[2-[[3-[(4-chlorophenyl)methoxy]-4-methoxy-phenyl]methylidene]hydrazinyl]-4-oxidanylidene-1,3-thiazol-5-yl]ethanoic acid]
Second: O=C(O)COc1ccccc1CN=Nc1ccc(S(=O)(=O)Nc2ccc(Cl)cc2)cc1[N+](=O)[O-] [MLS000774437]
The IC50 of the first is 1.7-fold higher: 66.7 µM for the first, 38.9 µM for the second. The second is the more potent here.

Compared with `N#CC(C(=O)CSc1nnc(Cc2cccs2)n1C1CCCCC1)c1nc2ccccc2[nH]1` (stereo not drawn) [MLS000098387], `Cc1nnc(=O)[nH]c1N=NCc1cccs1` [thiophene-2-carbaldehyde (6-methyl-3-oxo-2,3-dihydro-1,2,4-triazin-5-yl)hydrazone] is 3.1-fold lower in IC50: 78.9 µM for the first, 25.8 µM for the second.

Going from `CC(=O)N1N=C(C2C(=O)N(C)C(=O)N(C)C2=O)CC1c1ccccc1` (stereo not drawn) [5-(1-acetyl-5-phenylpyrazolidin-3-ylidene)-1,3-dimethyl-1,3-diazinane-2,4,6-trione] to `C/C(Cl)=C\CN1C(=O)C(=NNC(N)=S)c2ccccc21` [[(Z)-[1-[(E)-3-chlorobut-2-enyl]-2-oxoindol-3-ylidene]amino]thiourea], the IC50 rises from 16 µM to 63.5 µM (4-fold).

Going from `O=C1N=c2ccc(Br)cc2=C1NNc1nnn[nH]1` [5-bromanyl-3-[2-(2H-1,2,3,4-tetrazol-5-yl)hydrazinyl]indol-2-one] to `Clc1ccc(CN=Nc2nnn[nH]2)cc1`, the IC50 rises from 26.5 µM to 92.8 µM (3.5-fold).

First: CC(NNC(=O)c1cc2ccccc2cc1O)=C1C(=O)c2ccccc2C1=O [N-[1-[1,3-bis(oxidanylidene)inden-2-yl]ethylideneamino]-3-oxidanyl-naphthalene-2-carboxamide]
Second: Cc1cc(=O)[nH]c(N=NCc2c(O)n(-c3ccccc3)c(=O)c3ccccc23)n1 [SMR000221270]
The IC50 of the first is 3.9-fold lower: 12 µM for the first, 47 µM for the second.

`COc1ccccc1C1CC(c2ccc(Cl)cc2)=Nc2nc(-n3c(O)ccc3O)nn21` (stereo not drawn) [MLS000040652] and `COc1ccc(-c2n[nH]c3c2C2(C(=O)N(CC(=O)O)c4ccccc42)C(C#N)C(=N)O3)cc1OC` (stereo not drawn) [2-[6-amino-5-cyano-3-(3,4-dimethoxyphenyl)-2'-oxo-1'-spiro[2H-pyrano[2,3-c]pyrazole-4,3'-indole]yl]acetic acid] are within 1.5-fold of each other in IC50: 31.3 µM for the first, 43.3 µM for the second.

Going from `CC(N=Nc1nc(C(=O)O)cs1)c1ccccc1` (stereo not drawn) [2-[2-(1-phenylethylidene)hydrazinyl]-4-thiazolecarboxylic acid] to `N#CC(=NNc1ccc(Cl)cc1)C(=O)c1ccccc1` [2-[(4-chlorophenyl)hydrazono]-3-oxo-3-phenylpropanenitrile], the IC50 rises from 34.2 µM to 106 µM (3.1-fold).

First: O=C(O)c1cccc(-c2ccc(CN=Nc3ccc([N+](=O)[O-])cc3)o2)c1 [MLS000777078]
Second: O=C(O)c1ccc(-c2ccc(CN=Nc3ccc([N+](=O)[O-])cc3)o2)cc1
The IC50 of the first is 1.6-fold lower: 27.3 µM for the first, 43.1 µM for the second. The first is the more potent here.

First: O=C(O)c1cc(-c2ccc(CN=Nc3ccc([N+](=O)[O-])cn3)o2)ccc1Cl [2-chloro-5-[5-[[(5-nitropyridin-2-yl)hydrazinylidene]methyl]furan-2-yl]benzoic acid]
Second: O=[N+]([O-])c1cc(Br)c(O)c(CN=Nc2nnnn2-c2cccc3ccccc23)c1 [(6E)-2-bromo-6-[[2-(1-naphthalen-1-yltetrazol-5-yl)hydrazinyl]methylidene]-4-nitrocyclohexa-2,4-dien-1-one]
The IC50 of the first is 1.9-fold higher: 12.7 µM for the first, 6.79 µM for the second. The second is the more potent here.

Compared with `CCCCCCC(=O)N(O)c1cc(O)n(-c2ccccc2)c1O` [SMR000043985], `CCOC(=O)C1C(CC)=Nc2ccccc2N=C1NS(=O)(=O)c1cc(Br)ccc1Br` (stereo not drawn) [MLS000775637] is 2.2-fold lower in IC50: 66.5 µM for the first, 30.3 µM for the second. The second is the more potent here.

Going from `O=C(O)c1cccc(NC(=S)NN=Cc2ccccc2OCc2cccc(Br)c2)c1` [SMR000312741] to `COC1=CC(C=NNC(=O)[C@H](Cc2c[nH]c3ccccc23)NC(=O)OCC(C)C)C=C([N+](=O)[O-])C1=O` (stereo partly drawn) [N-[(2S)-3-(1H-indol-3-yl)-1-[[(E)-(3-methoxy-5-nitro-4-oxo-1-cyclohexa-2,5-dienylidene)methyl]hydrazo]-1-oxopropan-2-yl]carbamic acid 2-methylpropyl ester], the IC50 falls from 109 µM to 12.2 µM (8.9-fold).

Going from `CNC(=S)N/N=C1\C(=O)Nc2ccccc21` [1-methyl-3-[(2-oxoindol-3-yl)amino]thiourea] to `O=C1NC(=O)C(N=Nc2cc([N+](=O)[O-])ccc2O)C(=O)N1`, the IC50 falls from 47.9 µM to 11.4 µM (4.2-fold).

`CN1CCN(CC2=c3oc(=O)c(=C4C=CCC=N4)cc3C=CC2=O)CC1` [(3E)-8-[(4-methylpiperazin-1-yl)methyl]-3-(1H-pyridin-2-ylidene)chromene-2,7-dione] showed an IC50 of 52.2 µM.
